In patent publication US6355799B1, “Substituted benzene compounds, process for their preparation, and herbicidal and defoliant compositions containing them” (ISK Americas Incorporated, priority 1997, dated 2002):

Assays:
Type in all cases: in vivo
[1] = system: velvetleaf (Abutilon theophrasti, ABUTH); experiment: Pre-emerge test, greenhouse herbicide activity screening; conditions: rating scale 0-100, 14 days after application
Source text: (§1) A standard greenhouse herbicide activity screening system was used to evaluate the herbicidal efficacy and crop safety of these test compounds. Seven broadleaf weed species including redroot pigweed (Amaranthus retroflexus, AMARE, velvetleaf (Abutilon theophrasti, ABUTH), sicklepod (Cassia obtusifolia, CASOB), ivyleaf morningglory (Ipomoea hederacea, IPOHE), lambsquarters (Chenopodium album, CHEAL), common ragweed (Ambrosia artemisizfolia L., AMBEL), and cocklebur (Xanthium strumarium, XANST) were used as test species. Four grass weed species including green foxtail (Setaria viridis, SETVI), barnyardgrass (Echinochloa crus-galli, ECHCG), johnsongrass (Sorghum halepense, SORHA), and large crabgrass (Digitaria sanguinalis, DIGSA) were also used. In addition, three crop species, field corn (Zea mays L., var. Dekalb 535, CORN), soybean (Glycine max L., var. Pella 86, SOY), and is upland rice (Oryza sp., var. Tebonnet, RICE) were included.
(§2) All plants were grown in 10 cm square plastic pots which were filled with a sandy loam soil mix. For pre-emerge tests, seeds were planted one day prior to application of the test compounds. For post-emerge tests, seeds were planted 8-21 days prior to the test to allow emergence and good foliage development prior to application of the test substances. At the time of the post-emerge application, plants of all species were usually at the 2-3 leaf stage of development.
(§3) All test compounds Were dissolved in acetone and applied to the test units in a volume of 187 l /ha. Test materials were applied at rates ranging from 15 g ai/ha to 1000 g ai/ha using a track sprayer equipped with a TJ8001E even flow flat fan spray nozzle. Plants were arranged on a shelf so that the top of the canopy (post-emerge) or top of the soil surface (pre-emerge) was 40-45 cm below the nozzle. Pressurized air was used to force the test solution through the nozzle as it was mechanically advanced (via electrically driven chain drive) over the top of all test plants/pots. This application simulates a typical commercial field herbicide application.
(§4) In the post-emerge test, a commercial non-ionic surfactant was also included (0.25% v/v) to enhance wetting of the leaf surfaces of target plants. Immediately after application, test units of the pre-emerge applications were watered at the soil surface to incorporate the test materials. Subsequently, these test units were bottom-watered. Post-emerge test units were always bottom-watered.
(§5) At 14 days after application of the test materials, phytotoxicity ratings were recorded. A rating scale of 0-100 was used as previously described in Research Methods in Weed Science, 2nd edition, B. Truelove, Ed., Southern Weed Science Society, Auburn University, Auburn, Ala. 1977. Briefly, “0” corresponds to no damage and “100” corresponds to complete death of all plants in the test unit. This scale was used both to determine efficacy against weed species and damage to crop species. Herbicide activity data for various compounds of this invention, which are shown by compound No. in Tables 1-8, are shown in Tables 11 and 12.

[2] = system: barnyardgrass (Echinochloa crus-galli, ECHCG); experiment: as above; conditions: rating scale 0-100, 14 days after application
Source text: as §1, §2, §3, §4, §5

[3] = system: lambsquarters (Chenopodium album, CHEAL); experiment: as above; conditions: rating scale 0-100, 14 days after application
Source text: as §1, §2, §3, §4, §5

[4] = system: green foxtail (Setaria viridis, SETVI); experiment: as above; conditions: rating scale 0-100, 14 days after application
Source text: as §1, §2, §3, §4, §5

[5] = system: sicklepod (Cassia obtusifolia, CASOB); experiment: as above; conditions: rating scale 0-100, 14 days after application
Source text: as §1, §2, §3, §4, §5

[6] = system: large crabgrass (Digitaria sanguinalis, DIGSA); experiment: as above; conditions: rating scale 0-100, 14 days after application
Source text: as §1, §2, §3, §4, §5

[7] = system: ivyleaf morningglory (Ipomoea hederacea, IPOHE); experiment: as above; conditions: rating scale 0-100, 14 days after application
Source text: as §1, §2, §3, §4, §5

[8] = system: field corn (Zea mays L., var. Dekalb 535, CORN); experiment: Pre-emerge test, crop safety; conditions: rating scale 0-100, 14 days after application
How it was run: (§6)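 Applied at 15–1000 g ai/ha from acetone in 187 l/ha spray volume. Post-emergence applications included 0.25% v/v non-ionic surfactant and reached plants sown 8–21 days before. Pre-emergence applications were incorporated by surface watering. Efficacy or crop damage was rated on a 0–100 scale after 14 days.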

[9] = system: upland rice (Oryza sp., var. Tebonnet, RICE); experiment: Pre-emerge test, crop safety; conditions: rating scale 0-100, 14 days after application
How it was run: as §6

[10] = system: redroot pigweed (Amaranthus retroflexus, AMARE); experiment: Pre-emerge test, greenhouse herbicide activity screening; conditions: rating scale 0-100, 14 days after application
How it was run: (§7)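 Herbicidal damage is scored 0 (none) to 100 (complete plant death) two weeks after a simulated field spray. Rates span 15–1000 g ai/ha, delivered in acetone at 187 l/ha. For post-emergence treatments, plants have 2–3 leaves and the spray carries 0.25% v/v non-ionic surfactant.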

[11] = system: velvetleaf (Abutilon theophrasti, ABUTH); experiment: Post-emerge test, greenhouse herbicide activity screening; conditions: post-emerge, phytotoxicity rating 0-100 at 14 days after application
Source text: as §1, §2, §3, §4, §5

[12] = system: barnyardgrass (Echinochloa crus-galli, ECHCG); experiment: as above; conditions: post-emerge, phytotoxicity rating 0-100 at 14 days after application
Source text: as §1, §2, §3, §4, §5

[13] = system: lambsquarters (Chenopodium album, CHEAL); experiment: as above; conditions: post-emerge, phytotoxicity rating 0-100 at 14 days after application
Source text: as §1, §2, §3, §4, §5

[14] = system: green foxtail (Setaria viridis, SETVI); experiment: as above; conditions: post-emerge, phytotoxicity rating 0-100 at 14 days after application
Source text: as §1, §2, §3, §4, §5

[15] = system: sicklepod (Cassia obtusifolia, CASOB); experiment: as above; conditions: post-emerge, phytotoxicity rating 0-100 at 14 days after application
Source text: as §1, §2, §3, §4, §5

[16] = system: redroot pigweed (Amaranthus retroflexus, AMARE); experiment: as above; conditions: post-emerge, phytotoxicity rating 0-100 at 14 days after application
Source text: as §1, §2, §3, §4, §5

[17] = system: large crabgrass (Digitaria sanguinalis, DIGSA); experiment: as above; conditions: post-emerge, phytotoxicity rating 0-100 at 14 days after application
Source text: as §1, §2, §3, §4, §5

[18] = system: ivyleaf morningglory (Ipomoea hederacea, IPOHE); experiment: as above; conditions: post-emerge, phytotoxicity rating 0-100 at 14 days after application
Source text: as §1, §2, §3, §4, §5

[19] = system: field corn (Zea mays L., var. Dekalb 535, CORN); experiment: Post-emerge test, crop safety; conditions: post-emerge, crop damage rating 0-100 at 14 days after application
How it was run: as §7

[20] = system: upland rice (Oryza sp., var. Tebonnet, RICE); experiment: Post-emerge test, crop safety; conditions: post-emerge, crop damage rating 0-100 at 14 days after application
How it was run: as §7

COc1c(Cl)cc(F)c(N2C(=O)C3CCCCN3C2=S)c1NC(=O)c1ccc2ccccc2c1 (stereo not shown) [12-5]
Pre-emerge herbicidal activity, phytotoxicity rating ABUTH ([1]; 63 g ai/ha): 70 | Pre-emerge herbicidal activity, phytotoxicity rating ABUTH ([1]; 250 g ai/ha): 90 | Pre-emerge herbicidal activity, phytotoxicity rating ECHCG ([2]; 63 g ai/ha): 0 | Pre-emerge herbicidal activity, phytotoxicity rating ECHCG ([2]; 250 g ai/ha): 40 | Pre-emerge herbicidal activity, phytotoxicity rating CHEAL ([3]; 63 g ai/ha): 90 | Pre-emerge herbicidal activity, phytotoxicity rating CHEAL ([3]; 250 g ai/ha): 100 | Pre-emerge herbicidal activity, phytotoxicity rating SETVI ([4]; 63 g ai/ha): 0 | Pre-emerge herbicidal activity, phytotoxicity rating SETVI ([4]; 250 g ai/ha): 0 | Pre-emerge herbicidal activity, phytotoxicity rating CASOB ([5]; 63 g ai/ha): 0 | Pre-emerge herbicidal activity, phytotoxicity rating CASOB ([5]; 250 g ai/ha): 80 | Pre-emerge herbicidal activity, phytotoxicity rating DIGSA ([6]; 63 g ai/ha): 0 | Pre-emerge herbicidal activity, phytotoxicity rating DIGSA ([6]; 250 g ai/ha): 10 | Pre-emerge herbicidal activity, phytotoxicity rating IPOHE ([7]; 63 g ai/ha): 0 | Pre-emerge herbicidal activity, phytotoxicity rating IPOHE ([7]; 250 g ai/ha): 20 | Pre-emerge phytotoxicity rating, crop damage CORN ([8]; 63 g ai/ha): 0 | Pre-emerge phytotoxicity rating, crop damage CORN ([8]; 250 g ai/ha): 0 | Pre-emerge phytotoxicity rating, crop damage RICE ([9]; 63 g ai/ha): 0 | Pre-emerge phytotoxicity rating, crop damage RICE ([9]; 250 g ai/ha): 10 | Pre-emerge herbicidal activity, phytotoxicity rating AMARE ([10]; 63 g ai/ha): 30 | Pre-emerge herbicidal activity, phytotoxicity rating AMARE ([10]; 250 g ai/ha): 100 | Post-emerge Herbicidal Activity ABUTH ([11]; 63 g ai/ha): 100 | Post-emerge Herbicidal Activity ABUTH ([11]; 250 g ai/ha): 100 | Post-emerge Herbicidal Activity ECHCG ([12]; 63 g ai/ha): 10 | Post-emerge Herbicidal Activity ECHCG ([12]; 250 g ai/ha): 10 | Post-emerge Herbicidal Activity CHEAL ([13]; 63 g ai/ha): 100 | Post-emerge Herbicidal Activity CHEAL ([13]; 250 g ai/ha): 99 | Post-emerge Herbicidal Activity SETVI ([14]; 63 g ai/ha): 20 | Post-emerge Herbicidal Activity SETVI ([14]; 250 g ai/ha): 10 | Post-emerge Herbicidal Activity CASOB ([15]; 63 g ai/ha): 40 | Post-emerge Herbicidal Activity CASOB ([15]; 250 g ai/ha): 60 | Post-emerge Herbicidal Activity AMARE ([16]; 63 g ai/ha): 70 | Post-emerge Herbicidal Activity AMARE ([16]; 250 g ai/ha): 85 | Post-emerge Herbicidal Activity DIGSA ([17]; 63 g ai/ha): 0 | Post-emerge Herbicidal Activity DIGSA ([17]; 250 g ai/ha): 10 | Post-emerge Herbicidal Activity IPOHE ([18]; 63 g ai/ha): 100 | Post-emerge Herbicidal Activity IPOHE ([18]; 250 g ai/ha): 99 | Post-emerge Herbicidal Activity CORN ([19]; 63 g ai/ha): 25 | Post-emerge Herbicidal Activity CORN ([19]; 250 g ai/ha): 20 | Post-emerge Herbicidal Activity RICE ([20]; 63 g ai/ha): 20 | Post-emerge Herbicidal Activity RICE ([20]; 250 g ai/ha): 15
